Measured values: publication PMC5659294 (Pharmacogenetics and genomics, 2017)
Where two headings read alike, the source gives them in different places.

Assay type: in vivo, human

## CC/C(=C(\c1ccccc1)c1ccc(OCCNC)cc1)c1ccccc1 [N-desmethyltamoxifen]
Secondary screen, fall compared to winter
  Association of season with N-desmethyltamoxifen concentration, β: −1.053
Secondary screen, greater weight
  Association of weight with N-desmethyltamoxifen concentration, β: −0.025

## CC/C(=C(\c1ccc(O)cc1)c1ccc(OCCNC)cc1)c1ccccc1 [endoxifen]
CYP2C9 Activity Phenotype
  Final multivariable model, steady-state endoxifen concentration, B Coefficient (95% Confidence Interval): .20 (0.03, 0.37)
CYP2D6 Diplotype IM/IM (vs. NM/NM)
  Final multivariable model, steady-state endoxifen concentration, B Coefficient (95% Confidence Interval): −.87 (−1.4, −.34)
CYP2D6 Diplotype IM/PM (vs. NM/NM)
  Final multivariable model, steady-state endoxifen concentration, B Coefficient (95% Confidence Interval): −.96 (−1.3, −.61)
CYP2D6 Diplotype NM/IM (vs. NM/NM)
  Final multivariable model, steady-state endoxifen concentration, B Coefficient (95% Confidence Interval): −.35 (−.61, −.08)
CYP2D6 Diplotype NM/PM (vs. NM/NM)
  Final multivariable model, steady-state endoxifen concentration, B Coefficient (95% Confidence Interval): −.49 (−.73, −.26)
CYP2D6 Diplotype PM/PM (vs. NM/NM)
  Final multivariable model, steady-state endoxifen concentration, B Coefficient (95% Confidence Interval): −1.32 (−1.79, −.85)
Season of Sample Collection Fall (vs. winter)
  Final multivariable model, steady-state endoxifen concentration, B Coefficient (95% Confidence Interval): −.48 (−.74, −.22)
Season of Sample Collection Summer (vs. winter)
  Final multivariable model, steady-state endoxifen concentration, B Coefficient (95% Confidence Interval): −.49 (−.79, −.19)
Weight (kg)
  Final multivariable model, steady-state endoxifen concentration, B Coefficient (95% Confidence Interval): −.013 (−.02, −.01)
Secondary screen, higher SULT1A1 predicted activity phenotype
  Association of SULT1A1 activity with endoxifen/4-OH-tamoxifen ratio, β: 0.54
Secondary screen, increased CYP2C8 predicted activity phenotype
  Association of CYP2C8 activity with ratio of endoxifen to N-desmethyltamoxifen, β: 0.01
Steady state, tamoxifen 20 mg daily, ABCB1 predicted activity phenotype Normal
  Mean Endoxifen (Std. Dev.): 7.01 (4.41) n=60 ng/mL
Steady state, tamoxifen 20 mg daily, ABCB1 predicted activity phenotype Poor
  Mean Endoxifen (Std. Dev.): 8.93 (7.53) n=37 ng/mL
Steady state, tamoxifen 20 mg daily, ABCC2 predicted activity phenotype Normal
  Mean Endoxifen (Std. Dev.): 8.29 (4.99) n=89 ng/mL
Steady state, tamoxifen 20 mg daily, ABCC2 predicted activity phenotype Poor
  Mean Endoxifen (Std. Dev.): 9.30 (5.34) n=10 ng/mL
Steady state, tamoxifen 20 mg daily, ABCG2 predicted activity phenotype Normal
  Mean Endoxifen (Std. Dev.): 7.90 (5.48) n=249 ng/mL
Steady state, tamoxifen 20 mg daily, ABCG2 predicted activity phenotype Poor
  Mean Endoxifen (Std. Dev.): 12.82 (10.85) n=3 ng/mL
Steady state, tamoxifen 20 mg daily, CYP1A1 predicted activity phenotype Normal
  Mean Endoxifen (Std. Dev.): 8.05 (5.51) n=248 ng/mL
Steady state, tamoxifen 20 mg daily, CYP1A1 predicted activity phenotype Poor
  Mean Endoxifen (Std. Dev.): 3.19 (1.53) n=2 ng/mL
Steady state, tamoxifen 20 mg daily, CYP1A2 predicted activity phenotype Normal
  Mean Endoxifen (Std. Dev.): 8.13 (4.48) n=22 ng/mL
Steady state, tamoxifen 20 mg daily, CYP1A2 predicted activity phenotype Poor
  Mean Endoxifen (Std. Dev.): 9.57 (6.18) n=6 ng/mL
Steady state, tamoxifen 20 mg daily, CYP2A6 predicted activity phenotype Normal
  Mean Endoxifen (Std. Dev.): 7.95 (5.57) n=220 ng/mL
Steady state, tamoxifen 20 mg daily, CYP2A6 predicted activity phenotype Poor
  Mean Endoxifen (Std. Dev.): 7.46 (9.71) n=5 ng/mL
Steady state, tamoxifen 20 mg daily, CYP2B6 predicted activity phenotype Normal
  Mean Endoxifen (Std. Dev.): 8.11 (5.33) n=151 ng/mL
Steady state, tamoxifen 20 mg daily, CYP2B6 predicted activity phenotype Poor
  Mean Endoxifen (Std. Dev.): 8.20 (4.81) n=24 ng/mL
Steady state, tamoxifen 20 mg daily, CYP2C8 predicted activity phenotype Normal
  Mean Endoxifen (Std. Dev.): 8.38 (5.72) n=205 ng/mL
Steady state, tamoxifen 20 mg daily, CYP2C8 predicted activity phenotype Poor
  Mean Endoxifen (Std. Dev.): 6.71 (5.04) n=13 ng/mL
Steady state, tamoxifen 20 mg daily, CYP2C9 predicted activity phenotype Normal
  Mean Endoxifen (Std. Dev.): 8.29 (5.61) n=189 ng/mL
Steady state, tamoxifen 20 mg daily, CYP2C9 predicted activity phenotype Poor
  Mean Endoxifen (Std. Dev.): 6.26 (4.82) n=9 ng/mL
Steady state, tamoxifen 20 mg daily, CYP2C19 predicted activity phenotype Normal
  Mean Endoxifen (Std. Dev.): 7.64 (5.97) n=109 ng/mL
Steady state, tamoxifen 20 mg daily, CYP2C19 predicted activity phenotype Poor
  Mean Endoxifen (Std. Dev.): 7.95 (5.66) n=13 ng/mL
Steady state, tamoxifen 20 mg daily, CYP2E1 predicted activity phenotype Normal
  Mean Endoxifen (Std. Dev.): 8.03 (5.40) n=84 ng/mL
Steady state, tamoxifen 20 mg daily, CYP3A4 predicted activity phenotype Normal
  Mean Endoxifen (Std. Dev.): 7.78 (5.39) n=288 ng/mL
Steady state, tamoxifen 20 mg daily, CYP3A5 predicted activity phenotype Normal
  Mean Endoxifen (Std. Dev.): 8.51 (7.70) n=8 ng/mL
Steady state, tamoxifen 20 mg daily, CYP3A5 predicted activity phenotype Poor
  Mean Endoxifen (Std. Dev.): 7.71 (5.29) n=240 ng/mL
Steady state, tamoxifen 20 mg daily, SLCO1B1 predicted activity phenotype Normal
  Mean Endoxifen (Std. Dev.): 8.63 (5.57) n=87 ng/mL
Steady state, tamoxifen 20 mg daily, SLCO1B1 predicted activity phenotype Poor
  Mean Endoxifen (Std. Dev.): 6.97 (4.21) n=62 ng/mL
Steady state, tamoxifen 20 mg daily, SULT1A1 predicted activity phenotype Normal
  Mean Endoxifen (Std. Dev.): 7.56 (4.51) n=111 ng/mL
Steady state, tamoxifen 20 mg daily, SULT1A1 predicted activity phenotype Poor
  Mean Endoxifen (Std. Dev.): 7.81 (6.59) n=45 ng/mL
Steady state, tamoxifen 20 mg daily, SULT1A2 predicted activity phenotype Normal
  Mean Endoxifen (Std. Dev.): 7.94 (5.23) n=84 ng/mL
Steady state, tamoxifen 20 mg daily, SULT1A2 predicted activity phenotype Poor
  Mean Endoxifen (Std. Dev.): 7.72 (5.70) n=74 ng/mL
Steady state, tamoxifen 20 mg daily, UGT2B7 predicted activity phenotype Normal
  Mean Endoxifen (Std. Dev.): 7.11 (5.09) n=73 ng/mL
Steady state, tamoxifen 20 mg daily, UGT2B7 predicted activity phenotype Poor
  Mean Endoxifen (Std. Dev.): 8.38 (5.36) n=63 ng/mL
Steady state, tamoxifen 20 mg daily, UGT2B15 predicted activity phenotype Normal
  Mean Endoxifen (Std. Dev.): 8.07 (5.82) n=71 ng/mL
Steady state, tamoxifen 20 mg daily, UGT2B15 predicted activity phenotype Poor
  Mean Endoxifen (Std. Dev.): 7.75 (4.48) n=75 ng/mL
Steady state, tamoxifen 20 mg daily, UGT2B17 predicted activity phenotype Normal
  Mean Endoxifen (Std. Dev.): 7.83 (5.25) n=122 ng/mL
Steady state, tamoxifen 20 mg daily, UGT2B17 predicted activity phenotype Poor
  Mean Endoxifen (Std. Dev.): 6.60 (5.48) n=35 ng/mL

## CC/C(=C(\c1ccccc1)c1ccc(OCCN(C)C)cc1)c1ccccc1 [tamoxifen, reference compound]
Steady state, tamoxifen 20 mg daily
  tamoxifen concentrations by season of sample collection: not different between the seasons
